# ± gives the standard deviation of the averaged measurements.
# Experiments:
# Details in all cases: 72 h
# Vero E6 [1] = assay: cell viability relative to DMSO; higher = less toxic
# Caco-2 [2] = assay: as above
# U2OS [3] = assay: as above
# Calu-3 [4] = assay: as above
# HepG2 [5] = assay: as above
# Vero E6 [6] = assay: relative viability EC50 (midpoint between 100% and the lowest measured viability); higher = less toxic
# Caco-2 [7] = assay: as above
# U2OS [8] = assay: as above
# Calu-3 [9] = assay: as above
# HepG2 [10] = assay: as above
# Vero E6 [11] = assay: drug sensitivity score (DSS) for viability; higher = more toxic; extreme values may be limits of the assay
# Caco-2 [12] = assay: as above
# U2OS [13] = assay: as above
# Calu-3 [14] = assay: as above
# HepG2 [15] = assay: as above
Compound,cell viability (Vero E6 [1]; 1 nM),cell viability (Vero E6 [1]; 10 nM),cell viability (Vero E6 [1]; 100 nM),cell viability (Vero E6 [1]; 1000 nM),cell viability (Vero E6 [1]; 10000 nM),cell viability (Caco-2 [2]; 1 nM),cell viability (Caco-2 [2]; 10 nM),cell viability (Caco-2 [2]; 100 nM),cell viability (Caco-2 [2]; 1000 nM),cell viability (Caco-2 [2]; 10000 nM),cell viability (U2OS [3]; 1 nM),cell viability (U2OS [3]; 10 nM),cell viability (U2OS [3]; 100 nM),cell viability (U2OS [3]; 1000 nM),cell viability (U2OS [3]; 10000 nM),cell viability (Calu-3 [4]; 1 nM),cell viability (Calu-3 [4]; 10 nM),cell viability (Calu-3 [4]; 100 nM),cell viability (Calu-3 [4]; 1000 nM),cell viability (Calu-3 [4]; 10000 nM),cell viability (HepG2 [5]; 1 nM),cell viability (HepG2 [5]; 10 nM),cell viability (HepG2 [5]; 100 nM),cell viability (HepG2 [5]; 1000 nM),cell viability (HepG2 [5]; 10000 nM),relative viability EC50 (Vero E6 [6]),relative viability EC50 (Caco-2 [7]),relative viability EC50 (U2OS [8]),relative viability EC50 (Calu-3 [9]),relative viability EC50 (HepG2 [10]),drug sensitivity score (Vero E6 [11]),drug sensitivity score (Caco-2 [12]),drug sensitivity score (U2OS [13]),drug sensitivity score (Calu-3 [14]),drug sensitivity score (HepG2 [15])
NCC(CC(=O)O)c1ccc(Cl)cc1 (stereo not given) [baclofen],97.75 ± 0.071%,96.8 ± 1.7%,99.7 ± 3.2%,96.8 ± 3.8%,104 ± 6.9%,98.6 ± 7.2%,99.5 ± 3.1%,95 ± 7.8%,97.5 ± 3.8%,100 ± 5%,96.8 ± 1.1%,101 ± 2.5%,95.5 ± 2.3%,101 ± 5.4%,98.8 ± 8%,98.9 ± 7.8%,104 ± 5.4%,98.6 ± 2%,94.8 ± 4.7%,104 ± 4.7%,101 ± 2.9%,104 ± 9.8%,106.2 ± 0.99%,102 ± 7.6%,99.8 ± 1.3%,> 10 µM,> 10 µM,> 10 µM,> 10 µM,> 10 µM,0,0,0,0,0
O=[N+]([O-])c1ncc[nH]1 [azomycin-(2-nitroimidazole)],99.6%,102%,101%,100%,100%,109%,104%,107%,87%,108%,89.5%,88.7%,94.9%,98.6%,101%,100%,102%,94%,92.5%,99.8%,104%,104%,102%,107%,93.8%,> 10 µM,> 10 µM,> 10 µM,> 10 µM,> 10 µM,0,0,0,0,0
CCC(=O)O[C@@H]1CC(=O)O[C@H](C)C/C=C/C=C/[C@H](OC(C)=O)[C@H](C)C[C@H](CC=O)[C@H](O[C@@H]2O[C@H](C)[C@@H](O[C@H]3C[C@@](C)(OC(C)=O)[C@@H](OC(=O)CC)[C@H](C)O3)[C@H](N(C)C)[C@H]2O)[C@H]1OC [miocamycin],97.5%,96.8%,96.4%,99.1%,96.7%,98.4%,102%,96.5%,96.5%,85.6%,96.9%,98.7%,97.9%,99.7%,92.4%,91.1%,104%,85.1%,92.8%,82.4%,96.2%,90.8%,103%,90.6%,90%,> 10 µM,> 10 µM,> 10 µM,> 10 µM,> 10 µM,0,0.4,0,0.9,0
CNC(=O)c1cccc2cc(Oc3ccnc4cc(OCC5(N)CC5)c(OC)cc34)ccc12 [lucitanib],97.2%,100%,98.8%,86.1%,86%,93.6%,98.1%,93.2%,97.6%,100%,99.1%,94.4%,93.6%,99%,91.5%,98.8%,93%,101%,98.9%,92.1%,95.7%,108%,106%,104%,84%,> 10 µM,> 10 µM,> 10 µM,> 10 µM,> 10 µM,1.2,0,0,0,0.2
Nc1nc(CC(=O)Nc2ccc(CCNC[C@H](O)c3ccccc3)cc2)cs1 [mirabegron],99.1%,96.3%,101%,93.2%,103%,99.8%,100%,97.7%,108%,92.2%,102%,98.2%,93.6%,102%,97.5%,93.8%,97%,100%,110%,108%,104%,96.6%,104%,93.2%,102%,> 10 µM,> 10 µM,> 10 µM,> 10 µM,> 10 µM,0,0,0,0,0
CN(CCOc1ccc(C[C@H](Nc2ccccc2C(=O)c2ccccc2)C(=O)O)cc1)c1ccccn1 [GW-1929],92%,90.2%,80.3%,82.3%,90.2%,95.1%,96.3%,107%,99.5%,85.5%,98.3%,96.1%,99.3%,98.7%,98.2%,111%,112%,120%,116%,95.6%,92.2%,104%,81.5%,85.8%,106%,> 10 µM,> 10 µM,> 10 µM,> 10 µM,> 10 µM,0,0.2,0,0,0
CCOC(=O)[C@@](C)(N)Cc1ccc(O)c(O)c1 [methyldopate],99.6%,98.4%,97.4%,107%,97.7%,103%,101%,100%,103%,88.4%,103%,98.4%,101%,102%,89.3%,91.4%,97.1%,101%,102%,92.5%,95.7%,96.4%,97.4%,97.4%,90.9%,> 10 µM,> 10 µM,> 10 µM,> 10 µM,> 10 µM,0,0,0,0,0
N[C@@H](CC(=O)N1CCn2c(nnc2C(F)(F)F)C1)Cc1n[nH]c2c(F)c(F)ccc12 [PK-44],102%,103%,104%,98.4%,100%,87.8%,96.3%,102%,105%,92.4%,102%,100%,99.4%,104%,99.7%,95.3%,96.6%,95.8%,100%,100%,102%,92%,114%,91.5%,91%,> 10 µM,> 10 µM,> 10 µM,> 10 µM,> 10 µM,0,0,0,0,0
CC(=O)OCC(=O)[C@@]12OC3(CCCC3)O[C@@H]1C[C@H]1[C@@H]3CCC4=CC(=O)C=C[C@]4(C)[C@@]3(F)[C@@H](O)C[C@@]12C [amcinonide],102%,96.2%,99.6%,95.6%,95.4%,104%,105%,94.6%,107%,104%,101%,101%,92.6%,97.2%,91.5%,101%,103%,93.9%,89.3%,97%,108%,97.1%,98.2%,91.8%,99.8%,> 10 µM,> 10 µM,> 10 µM,> 10 µM,> 10 µM,0,0,0,0.3,0
O=C(O)C(F)(F)C(F)(F)C(F)(F)C(F)(F)C(F)(F)C(F)(F)C(F)(F)F [ammonium-perfluorocaprylate],98.2%,99.5%,99.8%,100%,96%,96%,96%,107%,95.4%,103%,104%,95.2%,101%,92.7%,104%,98%,110%,100%,93.6%,99.3%,113%,105%,97.3%,99.5%,102%,> 10 µM,> 10 µM,> 10 µM,> 10 µM,> 10 µM,0,0,0,0,0
CN(C)/C=N/c1c(I)cc(I)c(CCC(=O)O)c1I [iopodic-acid],108%,101%,108%,99.1%,102%,99.8%,102%,94.3%,96.2%,105%,98.2%,100%,98.9%,102%,97.2%,101%,95.4%,89.5%,99.4%,93.2%,98.8%,93.7%,116%,95%,98.4%,> 10 µM,> 10 µM,> 10 µM,> 10 µM,> 10 µM,0,0,0,0,0
COC(=O)c1cc(OC)c2c(c1-c1c(C(=O)OC)cc(OC)c3c1OCO3)OCO2 [bifendate],105%,105%,105%,94.6%,107%,112%,104%,98.4%,102%,89.6%,99.3%,99.3%,97.6%,99.5%,101%,94.4%,98.1%,101%,106%,104%,94.8%,84%,93.2%,93.8%,90.4%,> 10 µM,> 10 µM,> 10 µM,> 10 µM,> 10 µM,0,0,0,0,0
CCn1cc(C(=O)O)c(=O)c2cc(F)c(N3CCNCC3)cc21 [norfloxacin],93.1%,99.3%,94.8%,94.1%,104%,104%,93.9%,96.1%,106%,103%,100%,99.1%,97.9%,104%,105%,93.9%,83.9%,92.2%,91.3%,104%,100%,98.5%,102%,100%,101%,> 10 µM,> 10 µM,> 10 µM,> 10 µM,> 10 µM,0,0,0,0,0
O=C1C2C=Nc3ccccc3C2=NN1c1ccc(Cl)cc1 (stereo not given) [CGS-9896],99.8%,103%,92.6%,97.9%,95.8%,103%,101%,94.2%,93%,82.7%,95.6%,100%,91.1%,94%,91.3%,93.7%,104%,87.9%,95.8%,103%,97.1%,88.6%,91%,94.1%,102%,> 10 µM,> 10 µM,> 10 µM,> 10 µM,> 10 µM,0,0.6,0,0,0

# — the supplement of paper PMC13380429
